Values after ≈ are worked out from the molar mass of the structure shown. Where two headings read alike, the source gives them in different places.
Tests used:
[1] = tested on: Psuedomonas aeruginosa ATCC BAA-47; experiment: Rapid screen broth microdilution assay; assay type: cell-based, Pseudomonas aeruginosa; details: rapid screen without replicates, 24 h, read-out: MIC P. aeruginosa (Gram negative)
Method: (§1) Antibacterial activity assay
(§2) Rapid screen broth microdilution assay
(§3) 5 × 125 mL Erlenmeyer flasks, each filled with 12.5 mL Mueller Hinton broth II (MHBII), were inoculated with Klebsiella pneumoniae ATCC 13883, Acinetobacter baumanii ATCC 17978, Psuedomonas aeruginosa ATCC BAA-47, Staphylococcus aureus […]
(§4) with 12.5 mL BHI broth was inoculated with Enterococcus faecium ATCC 19434. The cultures were incubated at 37 °C with shaking at 180 rpm for 16 h. The suspensions were diluted 100-fold with the requisite broth (E. faecium: 4-fold) and the resultant suspensions incubated for a further 3 h at 37 °C with shaking. […]
(§5) of 0.8–1.2 after 3 h. Stock solutions of the title compounds were prepared in the requisite broth from 100 mM stocks in DMSO with the exceptions of carbenicillin, which was from a 100 mM stock in water and ciprofloxacin from a 10 mM stock in DMSO.
(§6) 6 × 96 well plates were primed with a concentration gradient of the analytes from 200 to 3.13 µM, carbenicillin from 200 to 3.13 µM and ciprofloxacin from 10 to 0.16 µM. The cells were diluted 100-fold to an OD600 of 0.01. All plates were then inoculated with 50 μL per well bacterial culture in the requisite broth to 100 μL per well. Plates were then incubated at 37 °C for 24 h before reading OD600 on a BMG Clariostar platereader. […]

[2] = tested on: E. faecium ATCC 19434; experiment: MIC broth microdilution assay; assay type: cell-based, Enterococcus faecium; details: 24 h, read-out: MIC E. faecium (Gram positive)
Method: (§7) Antibacterial activity assay […]
(§8) MIC broth microdilution assay
(§9) 3 × 125 mL Erlenmeyer flasks, each filled with 12.5 mL MHBII, were inoculated with three different colonies of S. aureus NTCC 12973. 3 × 125 mL Erlenmeyer flasks, each filled with 12.5 mL BHI broth, were inoculated with three different colonies of E. faecium ATCC 19434. The cultures were incubated at 37 °C with shaking at 180 rpm for 16 h.
(§10) OD600 of ~2.5. The suspensions of S. aureus cultures were diluted 100-fold with MHBII while the E. faecium cultures were diluted 4-fold. The resultant suspensions were incubated for a further 3 h at 37 °C with shaking. […]
(§11) after 3 h. Stock solutions of the title compounds were prepared in the requisite broth from 100 mM stocks in DMSO with the exception of carbenicillin, which was from a 100 mM stock in water and vancomycin from a 10 mM stock in DMSO. 15 × 96 well plates were primed with concentration gradients of the analytes and carbenicillin as shown in Figure S60 for S. aureus. 15 × 96 well plates were primed with the concentration […]
(§12) μL per well of the relevant bacterial culture in the requisite broth to 100 μL per well.

[3] = tested on: Klebsiella pneumoniae ATCC 13883; experiment: Rapid screen broth microdilution assay; assay type: cell-based; details: rapid screen without replicates, 24 h, read-out: MIC K. pnuemoniae (Gram negative)
Method: as §1, §2, §3, §4, §5, §6

[4] = tested on: Escherichia coli K12 ATCC 10798; experiment: Rapid screen broth microdilution assay; assay type: cell-based; details: rapid screen without replicates, 24 h, read-out: MIC E. coli (Gram negative)
Method: as §1, §2, §3, §4, §5, §6

[5] = tested on: S. aureus NTCC 12973; experiment: MIC broth microdilution assay; assay type: cell-based, Staphylococcus aureus; details: 24 h, read-out: MIC S. aureus (Gram positive)
Method: as §7, §8, §9, §10, §11, §12
Plates were then incubated at 37 °C for 24 h before reading OD600 on a BMG Clariostar […]
Figure S50: Dose response profiles of the title compounds against S. aureus.
(§13) (1 picture or pasted object on this page, not shown here)

[6] = tested on: BEASB2, HaCat, RPE1, HCT116 and HeLa cell lines; experiment: Cell viability, summary over all cell lines studied; assay type: cell-based, human; details: Homo sapiens; summary of Table 3, 48 h; read-out: IC50 values, range over all cell lines studied
Method: (§14) To determine the relative viability, after incubation cells were fixed and stained with DAPI and the number of nuclei per well determined using a CeligoTM Image Cytometer (Figure S52 to S60). […] page 43: Cell viability studies Compound cytotoxicity was tested simultaneously on five representative cell lines […] All cells were cultured in DMEM Glutamax without pyruvate with 10% fetal bovine serum and 1% penicillin/streptomycin (Gibco). Cells were incubated with the compound for 24 or 48 h […] The tested concentration range for each compound was […] The required […] Greiner CELLSTAR® microplates) using the Echo 550 Acoustic Liquid Handler and wells were back-filled with DMSO when required to keep a final DMSO concentration […] Next, 50 μL of cell solution was added to the compound-containing wells using the Integra® […] Bulk dispenser. Cell solutions were prepared to get 5000 […] cells per well for hTERT RPE-1, and 5000 (24 h)/2500 (48 h) cells per well for BEAS- […] After incubation, cells were fixed with 4% PFA (Merck, […]), permeabilized with […] DAPI (Merck, 10236276001). Viable cells were counted using 377 nm excitation and 447 nm emission filters on the CeligoTM Image Cytometer. The number of nuclei per well was determined using the Direct Cell Count analysis from the CeligoPro Sofware […] All conditions were performed in triplicate. Staurosporine (Cambridge Bioscience, s7600) was used as a positive control and DMSO only as a negative control. The percentage of cell viability was normalized to the DMSO-only control and […] logistic curve with the scipy.optimize.curve_fit function. S43

[7] = tested on: Acinetobacter baumanii ATCC 17978; experiment: Rapid screen broth microdilution assay; assay type: cell-based, Acinetobacter baumannii; details: rapid screen without replicates, 24 h, read-out: MIC A. baumannii (Gram negative)
Method: as §1, §2, §3, §4, §5, §6

[8] = tested on: HeLa (cervical cancer) cells; experiment: Cell viability (DAPI nuclei count); assay type: cell-based, human; details: 48 h
Method: as §14

[9] = tested on: RPE1 (retinal pigment epithelial cells); experiment: Cell viability (DAPI nuclei count); assay type: cell-based, human
Method: as §14

[10] = tested on: HCT116 (colorectal cancer) cells; experiment: Cell viability (DAPI nuclei count); assay type: cell-based, human
Method: as §14

[11] = tested on: BEAS2B (non-cancer lung) cells; experiment: Cell viability (DAPI nuclei count); assay type: cell-based, human; details: 48 h
Method: as §14

[12] = tested on: HaCat (non-cancer skin) cells; experiment: Cell viability (DAPI nuclei count); assay type: cell-based, human; details: 48 h
Method: as §14

[13] = molecular target: streptavidin (Streptomyces avidinii, UniProt P22629); experiment: Isothermal titration calorimetry (ITC) with streptavidin; assay type: binding; details: 25 °C, 10 mM HEPES + 2% DMSO; for Kd: read-out: dissociation constant (Kd) to streptavidin
Chain of streptavidin (P22629 25-183, species assumed): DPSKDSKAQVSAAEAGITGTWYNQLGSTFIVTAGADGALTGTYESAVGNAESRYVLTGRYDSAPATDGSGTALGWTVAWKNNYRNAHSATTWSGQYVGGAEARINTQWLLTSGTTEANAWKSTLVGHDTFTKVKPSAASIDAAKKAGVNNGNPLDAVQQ
Method: Isothermal titration calorimetry
Streptavidin (20 µM in 10 mM HEPES plus 2% DMSO) was titrated stepwise with 2 uL injections of the compound (200 µM in 10 mM HEPES + 2% DMSO) at 25 °C, using a Malvern MicroCal PEAQ-ITC. Raw thermograms (top panels) and the binding isotherm from the integrated thermogram (bottom panels) were fit using the One Set of Sites model in the MicroCal PEAQ-ITC analysis software. Circles indicate the integrated heat, and the curve represents the best fit.
Figure S46: Isothermal titration calorimetry measurements of 5.
as §13

[14] = LogP by shake-flask method (n-octanol/phosphate buffer)
Method: using the "shake-flask" method.[6],[7] In short, phosphate buffer (50 mM, pH 7.4) was saturated with n-octanol by shaking a 1:1 mixture of both solution on a laboratory shaker for 72 h, after which the phases were separated. Stock solutions of each complex were then prepared in dimethylsulfoxide at a concentration of 10 mM. […]
(§15) solution with a concentration of 100 µM. From this solution, 1000 µL were transferred into an Eppendorf tube and mixed with 1000 µL of n-octanol. After shaking for 15 min and centrifugation (5 min, 6000 rpm), the two phases were carefully separated, and the contact layer discarded. Then, the absorbance of each phase was recorded with an Agilent 8453 UV/Vis spectrometer.
as §15, with “2 mL solution with” for “solution with”, “1000 µL phosphate buffer. After shaking” for “1000 µL of n-octanol. After shaking”, “rpm), the phases were” for “rpm), the two phases were”

[15] = molecular target: T1, avidin (Gallus gallus, UniProt P02701); experiment: HABA/avidin assay; assay type: binding; details: titration of HABA/avidin mixture, absorbance at 500 nm
T1 construct: purchased SIGMA-ALDRICH A9275
T1 sequence (P02701 25-152): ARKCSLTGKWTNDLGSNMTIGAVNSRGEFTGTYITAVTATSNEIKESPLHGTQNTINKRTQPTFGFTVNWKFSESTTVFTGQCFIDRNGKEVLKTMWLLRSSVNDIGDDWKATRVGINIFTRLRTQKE
Method: properties towards avidin using the HABA assay.[8] A mixture of avidin (6.8 μM, SIGMA-ALDRICH: A9275) and 4'-hydroxyazobenzene-2-carboxylic acid (HABA, 0.3 mM, SIGMA-ALDRICH: H5126) was dissolved in 50 mM sodium phosphate buffer (20 mL, pH 7.4) and allowed to equilibrate for 24 h at 4 °C. Stock solutions of each compound were prepared in dimethyl sulfoxide at a concentration of 1.1 mM. The […]
to the prepared avidin/HABA mixture (1 mL) at room temperature at 5–10 min intervals […]
absorbance then recorded with an Agilent 8453 UV/Vis spectrometer. The formation of the adduct was indicated by a decrease in the absorbance at 500 nm due to the displacement of HABA from the avidin. By plotting -ΔA500 nm vs. the molar concentration ratio c(compound):c(avidin), the binding stoichiometry of the compound to avidin was determined.

[16] = molecular target: T1, avidin; details: cited from earlier work
[17] = shake-flask method, n-octanol/phosphate buffer 50 mM pH 7.4

Compound: O=C(C#Cc1ccccc1)CCCC[C@@H]1SC[C@@H]2NC(=O)N[C@@H]21 (stereo in doubt) [Compound 5, 7-[(3aS,4S,6aR)-2-oxohexahydro-1H-thieno-[3,4-d]imidazol-4-yl]-1-phenyl-1-heptyn-3-one]
- MIC ([1]; Pseudomonas aeruginosa, ATCCBAA47): > 200 µM
- MIC ([2]; Enterococcus faecium, ATCC19434, three colonies): 200 µM (≈ 65.7 µg/mL)
- MIC ([3]; Klebsiella pneumoniae, ATCC13883): > 200 µM
- MIC ([4]; Escherichia coli, ATCC10798): > 200 µM
- MIC ([5]; Staphylococcus aureus, NTCC12973, three colonies): > 200 µM
- IC50 [6]: 2 to 4 µM
- MIC ([7]; Acinetobacter baumannii, ATCC17978): > 200 µM
- IC50 ([8]; Homo sapiens, HeLa): 3.3 µM
- IC50 ([9]; Homo sapiens, RPE-1, 48 h): 2.4 µM
- IC50 ([10]; Homo sapiens, HCT-116, 48 h): 4 µM
- IC50 ([11]; Homo sapiens, BEAS-2B): 3.6 µM
- IC50 ([12]; Homo sapiens, HaCaT): 3.3 µM
- Kd [13]: < 0.001 µM
- LogP [14, 17]: highly lipophilic^a

Compound: COC(=O)c1n[n]([Pt+])nc1C(=O)OC.F[P-](F)(F)(F)(F)F.c1ccc(-c2cccc(-c3ccccn3)n2)nc1 [Compound 15]
- MIC [1]: >200 µM
- MIC ([2]; three colonies): >200 µM
- MIC [3]: >200 µM
- MIC [4]: >200 µM
- MIC ([5]; three colonies): >200 µM
- avidin binding in HABA assay (result in words) [15]: non-specific protein binding
- MIC [7]: >200 µM
- IC50 [8]: 15.9 µM
- IC50 ([9]; 48 h): 4.9 µM
- IC50 ([10]; 48 h): 6 µM
- IC50 [12]: 15.4 µM
- dissociation constant (Kd) to streptavidin [13]: did not bind to streptavidin
- LogP ([14]; pH 7.4): -1.80

Compound: F[P-](F)(F)(F)(F)F.O=C1N[C@H]2[C@H](CS[C@H]2CCCCC(=O)c2n[n]([Pt+][c]3cccc(-c4cccc(-c5ccccn5)n4)n3)nc2-c2ccccc2)N1 [Compound 16, [Pt(triazolatoC6H5,biotin)(terpy)]PF6]
- MIC [1]: >200 µM
- MIC ([2]; three colonies): >200 µM
- MIC [3]: >200 µM
- MIC [4]: >200 µM
- MIC ([5]; three colonies): >200 µM
- MIC [7]: >200 µM
- IC50 [8]: 13.3 µM
- IC50 ([9]; 48 h): 5.2 µM
- IC50 ([10]; 48 h): 6.8 µM
- IC50 [11]: 8.3 µM
- IC50 [12]: 14.1 µM
- Kd [13]: 0.13 µM
- LogP [14, 17]: -0.78

Compound: O=C(O)c1ccccc1N=Nc1ccc(O)cc1 [HABA, 4'-hydroxyazobenzene-2-carboxylic acid]
- Kd [16]: 6 µM
